In the NIST ThermoML archive (doi:10.1016/j.tca.2018.11.020):
Numbers after ± are expanded uncertainties.

What was measured:
[1] = Adiabatic calorimetry
[2] = Molar enthalpy of transition or fusion; conditions: Crystal; Adiabatic calorimetry
[3] = molar heat capacity at constant pressure; conditions: 101.33 kPa, Vacuum adiabatic calorimetry

CC(C)O [propan-2-ol]
[1]
Conditions | Glass transition temperature [°C] | Triple point temperature [K]
Crystal | – | 184.7 ± 0.4
Glass | -156.0 ± 0.4 | –

Conditions | Molar enthalpy of transition or fusion [kcal/mol]
[2] | 1.27 ± 0.0239

[3]
Conditions | molar heat capacity at constant pressure [J/K/mol]
85 K, Glass | 51.12 ± 0.91
90 K, Glass | 53.51 ± 0.92
95 K, Glass | 56.01 ± 0.92
100 K, Crystal | 54.18 ± 0.92
100 K, Glass | 58.63 ± 0.92
105 K, Crystal | 56.19 ± 0.92
105 K, Glass | 61.36 ± 0.92
110 K, Crystal | 58.21 ± 0.92
110 K, Glass | 64.24 ± 0.92
115 K, Crystal | 60.23 ± 0.92
120 K, Crystal | 62.27 ± 0.92
120 K, Metastable liquid | 103.93 ± 0.93
125 K, Crystal | 64.31 ± 0.92
125 K, Metastable liquid | 103.76 ± 0.93
130 K, Crystal | 66.36 ± 0.92
130 K, Metastable liquid | 103.51 ± 0.93
135 K, Crystal | 68.41 ± 0.92
135 K, Metastable liquid | 103.26 ± 0.93
140 K, Crystal | 70.47 ± 0.92
145 K, Crystal | 72.55 ± 0.92
150 K, Crystal | 74.62 ± 0.92
155 K, Crystal | 76.7 ± 0.92
160 K, Crystal | 78.79 ± 0.93
165 K, Crystal | 80.88 ± 0.93
